{
  "source": "ChEMBL document CHEMBL4602687",
  "about": "“Dual Binding to Orthosteric and Allosteric Sites Enhances the Anticancer Activity of a TRAP1-Targeting Drug” (J Med Chem, 2020)",
  "key": {"PC-3": {"test_system": "PC-3", "assay": "Cytotoxicity against human PC3 cells assessed as reduction in cell viability up to 3 uM measured after 24 hrs by MTT assay", "format": "functional, cell-based"}, "LN-229": {"test_system": "LN-229", "assay": "Cytotoxicity against human LN229 cells assessed as reduction in cell viability up to 3 uM measured after 24 hrs by MTT assay", "format": "functional, cell-based"}, "[1]": {"molecular_target": "T1, Heat shock protein 75 kDa, mitochondrial (Homo sapiens) (UniProt Q12931)", "T1 sequence (whole entry)": "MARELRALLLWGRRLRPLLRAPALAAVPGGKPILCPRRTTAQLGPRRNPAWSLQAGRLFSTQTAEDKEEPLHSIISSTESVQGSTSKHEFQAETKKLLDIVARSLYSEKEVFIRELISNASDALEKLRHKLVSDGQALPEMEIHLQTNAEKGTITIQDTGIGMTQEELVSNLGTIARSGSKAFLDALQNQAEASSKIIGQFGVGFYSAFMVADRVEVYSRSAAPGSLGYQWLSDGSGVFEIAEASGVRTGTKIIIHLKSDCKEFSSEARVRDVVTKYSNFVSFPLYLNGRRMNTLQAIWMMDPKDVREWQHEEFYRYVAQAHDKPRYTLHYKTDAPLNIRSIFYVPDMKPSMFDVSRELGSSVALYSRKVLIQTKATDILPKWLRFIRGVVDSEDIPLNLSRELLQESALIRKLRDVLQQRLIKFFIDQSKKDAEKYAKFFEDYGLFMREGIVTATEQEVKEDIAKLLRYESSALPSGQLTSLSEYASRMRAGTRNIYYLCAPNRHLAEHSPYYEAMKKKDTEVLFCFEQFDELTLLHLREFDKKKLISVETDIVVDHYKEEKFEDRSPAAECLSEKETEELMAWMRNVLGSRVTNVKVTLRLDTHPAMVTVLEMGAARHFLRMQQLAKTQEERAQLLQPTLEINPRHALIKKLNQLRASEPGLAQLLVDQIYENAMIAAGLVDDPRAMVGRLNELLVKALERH", "assay": "(§1) Binding affinity to recombinant wild-type human TRAP1 ATP site expressed in Escherichia coli BL21 (DE3) assessed as induction of conformational change by measuring closed state population of TRAP1 at 10 uM measured after 30 mins in absence of ATP by TEM analysis (reference value: 52.1 +/- 0.6 %)"}, "[2]": {"molecular_target": "T1, Heat shock protein 75 kDa, mitochondrial (Homo sapiens)", "assay": "Inhibition of recombinant wild-type human TRAP1 chaperone activity expressed in Escherichia coli BL21 (DE3) at 5 uM preincubated for 30 mins followed by denatured luciferase and ATP addition by luciferase refolding assay"}, "HeLa": {"test_system": "HeLa", "assay": "Cytotoxicity against human HeLa cells assessed as reduction in cell viability up to 3 uM measured after 24 hrs by MTT assay", "format": "functional, cell-based"}, "[3]": {"molecular_target": "T1, Heat shock protein 75 kDa, mitochondrial (Homo sapiens)", "assay": "as §1, with “uM preincubated for 30 mins followed by ATP addition and” for “uM”, “mins” for “mins in absence of ATP”"}, "[4]": {"molecular_target": "T1, Heat shock protein 75 kDa, mitochondrial (Homo sapiens)", "assay": "Inhibition of recombinant wild-type human TRAP1 ATPase activity expressed in Escherichia coli BL21 (DE3) preincubated for 0.5 hrs followed by ATP addition and measured after 3 hrs by PiColorLock Gold reagent based colorimetric assay"}, "NCI-H460 [5]": {"test_system": "NCI-H460", "assay": "Cytotoxicity against human NCI-H460 cells assessed as reduction in cell viability up to 3 uM measured after 24 hrs by MTT assay", "format": "functional, cell-based"}, "Mus musculus [6]": {"test_system": "Mus musculus", "assay": "In vivo inhibition of TRAP1 in nude mouse xenografted with human NCI-H460 cells assessed as increase in AMPK phosphorylation at 5 mg/kg, ip administered daily by Western blot analysis", "format": "functional, organism-based"}, "[7]": {"molecular_target": "T1, Heat shock protein 75 kDa, mitochondrial (Homo sapiens)", "assay": "Inhibition of TRAP1 in human PC3 cells assessed as increase in CHOP expression at 5 uM measured after 2 to 12 hrs by Western blot analysis", "format": "cell-based", "settings": "PC-3"}, "Mus musculus [8]": {"test_system": "Mus musculus", "assay": "In vivo inhibition of TRAP1 in nude mouse xenografted with human NCI-H460 cells assessed as increase in SDHB degradation at 5 mg/kg, ip administered daily by Western blot analysis", "format": "functional, organism-based"}, "[9]": {"molecular_target": "T1, Heat shock protein 75 kDa, mitochondrial (Homo sapiens)", "assay": "Inhibition of TRAP1 in human PC3 cells assessed as loss of mitochondrial membrane potential at 10 uM measured after 2 hrs by TMRM dye based flow cytometry", "format": "cell-based", "settings": "PC-3"}, "Mus musculus [10]": {"test_system": "Mus musculus", "assay": "In vivo inhibition of TRAP1 in nude mouse xenografted with human NCI-H460 cells assessed as increase in SIRT3 degradation at 5 mg/kg, ip administered daily by Western blot analysis", "format": "functional, organism-based"}, "Homo sapiens [11]": {"organism": "Homo sapiens", "assay": "Inhibition of recombinant full-length human TRAP1 W585/W4F mutant expressed in Escherichia coli BL21 (DE3) assessed as intrinsic fluorescence quenching of tryptophan residues at 10 uM measured after 1 hr by fluorescence spectrophotometric method"}, "Homo sapiens [12]": {"organism": "Homo sapiens", "assay": "Inhibition of recombinant full-length human TRAP1 W383/W4F mutant expressed in Escherichia coli BL21 (DE3) assessed as intrinsic fluorescence quenching of tryptophan residues at 10 uM measured after 1 hr by fluorescence spectrophotometric method"}, "NCI-H460 [13]": {"test_system": "NCI-H460", "assay": "Antitumor activity against human NCI-H460 cells xenografted in nude mouse assessed as induction of tumor cell death by measuring increase in cleaved caspase-3 expression at 5 mg/kg, ip administered daily by Western blot analysis", "format": "functional, organism-based"}, "[14]": {"molecular_target": "T1, Heat shock protein 75 kDa, mitochondrial (Homo sapiens)", "assay": "Inhibition of TRAP1 in human PC3 cells assessed as reduction in SDHB expression at 5 uM measured after 2 to 12 hrs by Western blot analysis", "format": "cell-based", "settings": "PC-3"}, "[15]": {"molecular_target": "T1, Heat shock protein 75 kDa, mitochondrial (Homo sapiens)", "assay": "Inhibition of TRAP1 in human PC3 cells assessed as increase in AMPK phosphorylation at 5 uM measured after 2 to 12 hrs by Western blot analysis", "format": "cell-based", "settings": "PC-3"}, "[16]": {"molecular_target": "T1, Heat shock protein 75 kDa, mitochondrial (Homo sapiens)", "assay": "Inhibition of TRAP1 in human PC3 cells assessed as increase in reactive oxygen species generation at 10 uM measured after 2 hrs by Mito-SOX probe based flow cytometry", "format": "cell-based", "settings": "PC-3"}, "[17]": {"molecular_target": "T1, Heat shock protein 75 kDa, mitochondrial (Homo sapiens)", "assay": "Inhibition of TRAP1 in human PC3 cells assessed as reduction in SIRT3 expression at 5 uM measured after 2 to 12 hrs by Western blot analysis", "format": "cell-based", "settings": "PC-3"}, "NCI-H460 [18]": {"test_system": "NCI-H460", "assay": "Antitumor activity against human NCI-H460 cells xenografted in nude mouse assessed as reduction in tumor cell proliferation at 5 mg/kg, ip administered daily by Ki67 staining based immunohistochemistry analysis", "format": "functional, organism-based"}, "NCI-H460 [19]": {"test_system": "NCI-H460", "assay": "Antitumor activity against human NCI-H460 cells xenografted in nude mouse assessed as induction of tumor cell death by measuring increase in cleaved caspase-9 expression at 5 mg/kg, ip administered daily by Western blot analysis", "format": "functional, organism-based"}, "Mus musculus [20]": {"test_system": "Mus musculus", "assay": "In vivo inhibition of TRAP1 in nude mouse xenografted with human NCI-H460 cells assessed as increase in CHOP expression at 5 mg/kg, ip administered daily by Western blot analysis", "format": "functional, organism-based"}, "NCI-H460 [21]": {"test_system": "NCI-H460", "assay": "Antitumor activity against human NCI-H460 cells xenografted in nude mouse assessed as tumor growth inhibition at 5 mg/kg, ip administered daily", "format": "functional, organism-based"}},
  "note": "Activity calls are given as the source filed them. The rule behind the calls is not given here.",
  "data": [
    {"molecule": "CC(C)NCCCn1c(Sc2cc3c(cc2I)OCO3)nc2c(N)ncnc21", "values": [
      {"measurement": "Activity", "setting": "PC-3", "result": "Active"},
      {"measurement": "Activity", "setting": "LN-229", "result": "Active"},
      {"measurement": "Activity", "setting": "[1]", "result": 28.3, "unit": "%"},
      {"measurement": "inhibition", "setting": "[2]", "result": "Active"},
      {"measurement": "Activity", "setting": "HeLa", "result": "Active"},
      {"measurement": "Activity", "setting": "[3]", "result": 26.5, "unit": "%"},
      {"measurement": "inhibition", "setting": "[4]", "result": "Active"},
      {"measurement": "Activity", "setting": "NCI-H460 [5]", "result": "Active"}
    ]},
    {"molecule": "CC(C)c1cc(-c2n[nH]c(=O)n2-c2ccc3c(ccn3C)c2)c(O)cc1O", "values": [
      {"measurement": "Activity", "setting": "PC-3", "result": "Active"},
      {"measurement": "Activity", "setting": "LN-229", "result": "Active"},
      {"measurement": "Activity", "setting": "HeLa", "result": "Active"},
      {"measurement": "Activity", "setting": "NCI-H460 [5]", "result": "Active"}
    ]},
    {"molecule": "CO[C@H]1/C=C\\C=C(/C)C(=O)NC2=CC(=O)C(NCCCCCC[P+](c3ccccc3)(c3ccccc3)c3ccccc3)=C(C[C@@H](C)C[C@H](OC)[C@H](O)[C@@H](C)/C=C(\\C)[C@@H]1OC(N)=O)C2=O", "values": [
      {"measurement": "Activity", "setting": "PC-3", "result": "Active"},
      {"measurement": "Activity", "setting": "LN-229", "result": "Active"},
      {"measurement": "Activity", "setting": "NCI-H460 [5]", "result": "Active"}
    ]},
    {"molecule": "Nc1ncnc2c1nc(Sc1cc3c(cc1I)OCO3)n2CCCCCCCC[P+](c1ccccc1)(c1ccccc1)c1ccccc1", "values": [
      {"measurement": "inhibition", "setting": "[4]", "result": "Active"}
    ]},
    {"molecule": "Nc1ncnc2c1nc(Sc1cc3c(cc1I)OCO3)n2CCCCCCCCCCCC[P+](c1ccccc1)(c1ccccc1)c1ccccc1", "values": [
      {"measurement": "inhibition", "setting": "[4]", "result": "Active"}
    ]},
    {"molecule": "Nc1ncnc2c1nc(Sc1cc3c(cc1I)OCO3)n2CCC[P+](c1ccccc1)(c1ccccc1)c1ccccc1", "values": [
      {"measurement": "inhibition", "setting": "[4]", "result": "Active"}
    ]},
    {"molecule": "Nc1ncnc2c1nc(Sc1cc3c(cc1I)OCO3)n2CCCCCC[P+](c1ccccc1)(c1ccccc1)c1ccccc1", "values": [
      {"measurement": "Activity", "setting": "PC-3", "result": "Active"},
      {"measurement": "inhibition", "setting": "Mus musculus [6]", "result": "inactive"},
      {"measurement": "inhibition", "setting": "[7]", "result": "inactive"},
      {"measurement": "inhibition", "setting": "Mus musculus [8]", "result": "inactive"},
      {"measurement": "inhibition", "setting": "[9]", "result": "Active"},
      {"measurement": "inhibition", "setting": "Mus musculus [10]", "result": "inactive"},
      {"measurement": "inhibition", "setting": "Homo sapiens [11]", "result": "Active"},
      {"measurement": "Activity", "setting": "LN-229", "result": "Active"},
      {"measurement": "Activity", "setting": "[1]", "result": 28.2, "unit": "%"},
      {"measurement": "inhibition", "setting": "Homo sapiens [12]", "result": "Active"},
      {"measurement": "Activity", "setting": "NCI-H460 [13]", "result": "inactive"},
      {"measurement": "inhibition", "setting": "[14]", "result": "inactive"},
      {"measurement": "inhibition", "setting": "[15]", "result": "inactive"},
      {"measurement": "inhibition", "setting": "[2]", "result": "Active"},
      {"measurement": "inhibition", "setting": "[16]", "result": "Active"},
      {"measurement": "inhibition", "setting": "[17]", "result": "inactive"},
      {"measurement": "Activity", "setting": "HeLa", "result": "Active"},
      {"measurement": "Activity", "setting": "NCI-H460 [18]", "result": "inactive"},
      {"measurement": "Activity", "setting": "NCI-H460 [19]", "result": "inactive"},
      {"measurement": "Activity", "setting": "[3]", "result": 41.3, "unit": "%"},
      {"measurement": "inhibition", "setting": "Mus musculus [20]", "result": "inactive"},
      {"measurement": "TGI", "setting": "NCI-H460 [21]", "result": "inactive"},
      {"measurement": "inhibition", "setting": "[4]", "result": "Active"},
      {"measurement": "Activity", "setting": "NCI-H460 [5]", "result": "Active"}
    ]}
  ]
}
